Where only a bound is given, the exact number is not on record here.

The target of data set [1] is T1, α2,6(N)-sialyltransferases ST6GALI (Homo sapiens, UniProt P15907).
T1 construct: purchased RnDSystems.com (R&D Systems)
T1 sequence (P15907 1-406): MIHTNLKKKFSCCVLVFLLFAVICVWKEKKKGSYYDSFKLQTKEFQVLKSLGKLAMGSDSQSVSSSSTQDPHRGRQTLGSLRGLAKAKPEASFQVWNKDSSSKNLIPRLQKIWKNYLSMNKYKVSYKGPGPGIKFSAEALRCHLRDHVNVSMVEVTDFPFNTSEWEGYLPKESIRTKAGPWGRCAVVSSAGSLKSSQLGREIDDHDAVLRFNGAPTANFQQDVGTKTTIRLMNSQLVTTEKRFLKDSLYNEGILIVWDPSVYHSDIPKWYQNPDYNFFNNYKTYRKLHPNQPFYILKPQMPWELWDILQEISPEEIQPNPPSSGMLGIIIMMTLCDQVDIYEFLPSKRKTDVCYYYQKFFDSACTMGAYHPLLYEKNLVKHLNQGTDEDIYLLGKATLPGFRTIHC
The experiment in a line: Sialyltransferase inhibition assay, ST6GALI (reverse-phase HPLC). The format is biochemical. Conditions: for IC50: IC50 (μM) ST6GALI, α2,6-N-link. The method, then:
(§1) The enzymes analyzed in the present study included rat ST3Gal(I), rat ST3Gal(III), and human ST6Gal(I). Rat ST3Gal(I) and rat ST3Gal(Ill), were purchased from Calbiochem®, while human ST6Gal(I) was purchased from RnDSystems.com.
(§2) Sialyltransferase inhibition assay (α2,6-N-ST) was performed as follows: Sialyltransferase activity was determined by measuring the level of the end product of sialylated saccharides with reverse-phase HPLC. The assay mixtures contained the following components: 200 mM MES buffer; 100 mM NaCl; 0.5 mM EDTA; 0.01% Triton X-100; 1.4 mU ST6GALI; 25 μM Galβ1-4GlcNAc; 1 mM CMP-Neu5Ac and different concentration of Sialyltransferase inhibitors to a total volume of 50 μl. The assay mixture was incubated at 37° C. for 15 mins and then quenched by heating up to 101° C. for 10 mins. The sialylated product is resolved with reversed-phase HPLC. Kinetic data were obtained by fitting the initial rate data to the nonlinear regression equation.
(§3) Effects of the present compounds on the activity of sialyltransferase, including α2,3(N)-sialyltransferase ST3GALIII, α2,6(N)-sialyltransferases ST6GALI, and α2,3(O)-sialyltransferase ST3GALI, were determined in accordance with procedures described in the “Materials and Methods” section, and results are summarized in Table 1.

Data set [2] deals with T2, α2,3(O)-sialyltransferase ST3GALI (Rattus norvegicus, UniProt Q6H8N0).
T2 construct: purchased Calbiochem
T2 sequence (Q6H8N0 1-340): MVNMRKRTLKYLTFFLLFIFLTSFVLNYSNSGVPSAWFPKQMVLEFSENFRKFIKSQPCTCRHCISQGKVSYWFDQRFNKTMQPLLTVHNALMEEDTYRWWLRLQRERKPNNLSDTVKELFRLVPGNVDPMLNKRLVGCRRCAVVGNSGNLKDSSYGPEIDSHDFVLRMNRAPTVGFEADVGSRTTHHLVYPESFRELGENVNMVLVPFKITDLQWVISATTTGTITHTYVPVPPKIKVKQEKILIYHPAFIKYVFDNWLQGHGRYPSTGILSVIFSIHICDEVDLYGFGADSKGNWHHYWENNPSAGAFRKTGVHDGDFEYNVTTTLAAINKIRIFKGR
The experiment in a line: Sialyltransferase inhibition assay, ST3GALI (reverse-phase HPLC). The class given is biochemical. As to conditions: measured at 500 μM; read-out: ST3GALI inhibition percentage. Here is the method: as §1
as §2, with “mU ST3GALI; 2.5 mM T-antigen;” for “mU ST6GALI; 25 μM Galβ1-4GlcNAc;”, “to 101′C” for “to 101° C.”, “product was” for “product is”, “resolved by” for “resolved with”
as §3

By melting point is commonly meant the temperature of the solid-liquid transition. `C[C@H](CCC(=O)O)C1CCC2C3CC[C@@H]4C[C@H](NS(=O)(=O)c5cc6ccccc6s5)CC[C@]4(C)C3CC[C@@]21C` (some centres unmarked) showed a melting point of 132 to 134 °C.

For `C[C@H](CCC(=O)OCCOCCOCCN=[N+]=[N-])C1CCC2C3CC[C@@H]4C[C@H](NC(=O)[C@H](CCC(=O)O)Nc5ccc([N+](=O)[O-])c6nonc56)CC[C@]4(C)C3CC[C@@]21C` (some centres unmarked), the melting point is 77 to 78 °C.

In general, IC50 refers to the concentration needed to halve the response being measured. The low end stands for greater potency in that assay, the high end for weaker potency in that assay. What is called inhibition is how much of the control response was suppressed. `C[C@H](CCC(=O)OCCOCCOCCOCCN=[N+]=[N-])C1CC[C@H]2[C@@H]3CC[C@@H]4C[C@H](OC(=O)[C@H](CC(=O)O)NC(=O)c5ccc([N+](=O)[O-])cc5)CC[C@]4(C)[C@H]3CC[C@]12C` (stereo partly drawn) [Compound 9, (3S)-4-(((3R,5R,8R,9S,10S,13R,14S)-17-((R)-1-azido-13-oxo-3,6,9,12-tetraoxaheptadecan-16-yl)-10,13-dimethylhexadecahydro-1H-cyclopenta[a]phenanthren-3-yl)oxy)-3-(4-nitrobenzamido)-4-oxobutanoic acid]: in data set [1], the “selectivity ratio ST3GALI/ST6GALI” value is given as above 88 and half-maximal inhibition (IC50) required 5.7 ± 0.36 µM. For the same compound, in data set [2], the inhibition at 500 µM is 0%. In turn, `C[C@H](CCC(=O)OCCOCCOCCN=[N+]=[N-])C1CCC2C3CC[C@@H]4C[C@H](NC(=O)C5CCCN5c5ccc([N+](=O)[O-])c6nonc56)CC[C@]4(C)C3CC[C@@]21C` (some centres unmarked) gave a melting point of 62 to 64 °C.

The compound `C[C@H](CCC(=O)OCCOCCN=[N+]=[N-])C1CC[C@H]2[C@@H]3CC[C@@H]4C[C@H](OC(=O)[C@H](CC(=O)O)Nc5ccc([N+](=O)[O-])c6nonc56)CC[C@]4(C)[C@H]3CC[C@]12C` (stereo partly drawn) [Compound 2, (3S)-4-(((3R,5R,8R,9S,10S,13R,14S)-17-((R)-5-(2-(2-azidoethoxy)ethoxy)-5-oxopentan-2-yl)-10,13-dimethylhexadecahydro-1H-cyclopenta[a]phenanthren-3-yl)oxy)-3-((7-nitrobenzo[c][1,2,5]oxadiazol-4-yl)amino)-4-oxobutanoic acid] showed a melting point of 75 to 76 °C. In addition, the concentration for half-maximal inhibition (IC50) in data set [1] lay in the range of 3 to 7 µM. With `C[C@H](CCC(=O)OCCOCCOCCN=[N+]=[N-])C1CCC2C3CC[C@@H]4C[C@H](NC(=O)[C@H](CSC(C)(C)C)Nc5ccc([N+](=O)[O-])c6nonc56)CC[C@]4(C)C3CC[C@@]21C` (some centres unmarked), the melting point was in the range of 64 to 65 °C. Same read-out and setting: in the case of `C[C@H](CCC(=O)O)C1CCC2C3CC[C@@H]4C[C@H](Nc5ccc([N+](=O)[O-])c6nonc56)CC[C@]4(C)C3CC[C@@]21C` (some centres unmarked) it was 137 to 139 °C. Still for that read-out and setting: in the case of `C[C@H](CCC(=O)OCCOCCOCCN=[N+]=[N-])C1CCC2C3CC[C@@H]4C[C@H](NC(=O)[C@H](Cc5ccc(O)cc5)Nc5ccc([N+](=O)[O-])c6nonc56)CC[C@]4(C)C3CC[C@@]21C` (some centres unmarked) it was 72 to 73 °C; in that of `C[C@H](CCC(=O)OCCOCCOCCN=[N+]=[N-])C1CCC2C3CC[C@@H]4C[C@H](NC(=O)[C@H](Cc5c[nH]c6ccccc56)Nc5ccc([N+](=O)[O-])c6nonc56)CC[C@]4(C)C3CC[C@@]21C` (some centres unmarked), 86 to 87 °C. Regarding `C[C@H](CCC(=O)OCCOCCOCCOCCOCCN=[N+]=[N-])C1CC[C@H]2[C@@H]3CC[C@@H]4C[C@H](OC(=O)[C@H](CC(=O)O)NC(=O)c5ccc([N+](=O)[O-])cc5)CC[C@]4(C)[C@H]3CC[C@]12C` (stereo partly drawn) [Compound 10, (3S)-4-(((3R,5R,8R,9S,10S,13R,14S)-17-((R)-1-azido-16-oxo-3,6,9,12,15-pentaoxaicosan-19-yl)-10,13-dimethylhexadecahydro-1H-cyclopenta[a]phenanthren-3-yl)oxy)-3-(4-nitrobenzamido)-4-oxobutanoic acid], in data set [1], the “selectivity ratio ST3GALI/ST6GALI” value is on record as above 67 and the IC50 was 7.45 ± 0.36 µM. The inhibition at 500 µM in data set [2] worked out at 0%.

With `C[C@H](CCC(=O)OCCOCCOCCN=[N+]=[N-])C1CCC2C3CC[C@@H]4C[C@H](NC(=O)[C@H](CCCNC(=N)N)Nc5ccc([N+](=O)[O-])c6nonc56)CC[C@]4(C)C3CC[C@@]21C` (some centres unmarked), the melting point lay in the range of 78 to 79 °C.

Compound `C[C@H](CCC(=O)O)C1CCC2C3CC[C@@H]4C[C@H](NC(=O)[C@H](CC(=O)O)Nc5ccc([N+](=O)[O-])c6nonc56)CC[C@]4(C)C3CC[C@@]21C` (some centres unmarked) gave a melting point of 134 to 136 °C. On the same count and under the same terms, in the case of `C[C@H](CCC(=O)O)C1CCC2C3CC[C@@H]4C[C@H](NS(=O)(=O)c5cccc6cccnc56)CC[C@]4(C)C3CC[C@@]21C` (some centres unmarked) it was 138 to 140 °C; in that of `C[C@H](CCC(=O)OCCOCCOCCN=[N+]=[N-])C1CCC2C3CC[C@@H]4C[C@H](NC(=O)[C@H](CCCCN)Nc5ccc([N+](=O)[O-])c6nonc56)CC[C@]4(C)C3CC[C@@]21C` (some centres unmarked), 84 to 85 °C; in that of `COc1cc2nc(Cl)nc(N[C@@H]3CC[C@]4(C)C5CC[C@@]6(C)C(CCC6[C@H](C)CCC(=O)O)C5CC[C@@H]4C3)c2cc1OC` (some centres unmarked), 178 to 180 °C.

With `C[C@H](CCC(=O)O)C1CCC2C3CC[C@@H]4C[C@H](NC5=C(Cl)C(=O)c6ccccc6C5=O)CC[C@]4(C)C3CC[C@@]21C` (some centres unmarked), the melting point was 120 to 122 °C.

For the compound `C[C@H](CCC(=O)O)C1CCC2C3CC[C@@H]4C[C@H](NC(=O)[C@@H](N)CC(=O)O)CC[C@]4(C)C3CC[C@@]21C` (some centres unmarked), the melting point is 158 to 160 °C. On the same count and under the same terms, in the case of `C[C@H](CCC(=O)O)C1CCC2C3CC[C@@H]4C[C@H](Nc5ccc6ccccc6n5)CC[C@]4(C)C3CC[C@@]21C` (some centres unmarked) it was 140 to 142 °C; in that of `C[C@H](CCC(=O)OCCOCCOCCN=[N+]=[N-])C1CCC2C3CC[C@@H]4C[C@H](NC(=O)[C@H](Cc5ccccc5)Nc5ccc([N+](=O)[O-])c6nonc56)CC[C@]4(C)C3CC[C@@]21C` (some centres unmarked), 65 to 66 °C. Still for that read-out and setting: the figure for `C[C@H](Nc1ccc([N+](=O)[O-])c2nonc12)C(=O)N[C@@H]1CC[C@]2(C)C3CC[C@@]4(C)C(CCC4[C@H](C)CCC(=O)OCCOCCOCCN=[N+]=[N-])C3CC[C@@H]2C1` (some centres unmarked) is 69 to 70 °C; for `C[C@H](CCC(=O)O)C1CCC2C3CC[C@@H]4C[C@H](NS(=O)(=O)c5cccc6c(N(C)C)cccc56)CC[C@]4(C)C3CC[C@@]21C` (some centres unmarked) it is 136 to 138 °C.

For `C[C@H](CCC(=O)O)C1CCC2C3CC[C@@H]4C[C@H](NS(=O)(=O)c5c(Cl)ccc6nonc56)CC[C@]4(C)C3CC[C@@]21C` (some centres unmarked), the melting point is 128 to 130 °C. Same read-out and setting: in the case of `C[C@H](CCC(=O)O)C1CCC2C3CC[C@@H]4C[C@H](Nc5nc6ccccc6nc5Cl)CC[C@]4(C)C3CC[C@@]21C` (some centres unmarked) it was 118 to 120 °C.

The compound `C[C@H](CCC(=O)OCCOCCOCCN=[N+]=[N-])C1CCC2C3CC[C@@H]4C[C@H](NC(=O)[C@H](CS)Nc5ccc([N+](=O)[O-])c6nonc56)CC[C@]4(C)C3CC[C@@]21C` (some centres unmarked) came in with a melting point of 68 to 69 °C.
